According to patent US4740233A, “Substituted 1,2,4-triazolo[1,5-a]-pyrimidine-2-sulfonamides and compositions and methods of controlling undesired vegetation and suppressing the nitrification of ammonium nitrogen in soil” (The Dow Chemical Company, priority 1986, dated 1988):

Assays:
cotton [1] = assay: Postemergent control of plant species; assay type: in vivo, Gossypium spp.; conditions: Gossypium hirsutum, post-emergence, 336 h, read-out: percent postemergent control
How it was run: (§1)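 Compounds were taken up in acetone at twice the final concentration, then diluted with an equal volume of water containing 0.1% surfactant and sprayed onto greenhouse-grown plants at the 2-4 leaf stage. Plants were kept about two weeks under growth conditions; control is growth reduction relative to untreated plants of the same species.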

rape [2] = assay: Postemergent control of plant species; assay type: in vivo, Brassica napus; conditions: Brassica napus, post-emergence, 336 h, read-out: percent postemergent control
How it was run: as §1

soybean [3] = assay: Postemergent control of plant species; assay type: in vivo, Glycine max.; conditions: Glycine max, post-emergence, 336 h, read-out: percent postemergent control
How it was run: as §1

sugar beet [4] = assay: Postemergent control of plant species; assay type: in vivo, Beta saccharifera; conditions: Beta vulgaris, post-emergence, 336 h, read-out: percent postemergent control
How it was run: as §1

cocklebur = assay: Postemergent control of plant species; assay type: in vivo, Xanthium spp.; conditions: Xanthium strumarium, post-emergence, 336 h, read-out: percent postemergent control
Protocol: In representative operations, each compound to be utilized in a series of tests is dissolved in acetone to one-half of the final volume (twice the final concentration) to be used and the acetone solution in each case is admixed with an equal volume of water containing 0.1 percent by weight of surface active material. The compositions, generally in the nature of an emulsion, were employed to spray separate respective plant species which had been grown to a 2-4 leaf stage in soil of good nutrient content in a greenhouse. The various beds were positioned side by side and exposed to substantially identical conditions of temperature and light. Each bed was maintained so as to prevent any interaction with test compounds in different seed beds. Other plants were left untreated to serve as controls. After treatment, the plants were maintained for about two weeks under greenhouse conditions conducive for good plant growth and watered as necessary. Control refers to the reduction in growth compared to the observed results of the same untreated species.

jimsonweed [5] = assay: Postemergent control of plant species; assay type: in vivo, Datura stramonium; conditions: Datura stramonium, post-emergence, 336 h, read-out: percent postemergent control
How it was run: as §1

annual morning glory [6] = assay: Postemergent control of plant species; assay type: in vivo, Ipomoea spp.; conditions: Ipomoea, post-emergence, 336 h, read-out: percent postemergent control
How it was run: as §1

pigweed = assay: Postemergent control of plant species; assay type: in vivo, Amaranthus spp.; conditions: Amaranthus retroflexus, post-emergence, 336 h, read-out: percent postemergent control
How it was run: as §1

velvetleaf [7] = assay: Postemergent control of plant species; assay type: in vivo, Abutilon theophrasti; conditions: Abutilon theophrasti, post-emergence, 336 h, read-out: percent postemergent control
How it was run: as §1

corn [8] = assay: Postemergent control of plant species; assay type: in vivo, Zea mays; conditions: Zea mays, post-emergence, 336 h, read-out: percent postemergent control
How it was run: as §1

rice [9] = assay: Postemergent control of plant species; assay type: in vivo, Oryza sativa; conditions: Oryza sativa, post-emergence, 336 h, read-out: percent postemergent control
How it was run: as §1

sorghum [10] = assay: Postemergent control of plant species; assay type: in vivo, Sorghum vulgare; conditions: Sorghum, post-emergence, 336 h, read-out: percent postemergent control
How it was run: as §1

wheat [11] = assay: Postemergent control of plant species; assay type: in vivo, Triticum aestivum; conditions: Triticum aestivum, post-emergence, 336 h, read-out: percent postemergent control
How it was run: as §1

barnyardgrass [12] = assay: Postemergent control of plant species; assay type: in vivo, Echinochloa crusgalli; conditions: Echinochloa crus-galli, post-emergence, 336 h, read-out: percent postemergent control
How it was run: as §1

crabgrass = assay: Postemergent control of plant species; assay type: in vivo, Digitaria spp.; conditions: Digitaria sanguinalis, post-emergence, 336 h, read-out: percent postemergent control
How it was run: as §1

yellow foxtail [13] = assay: Postemergent control of plant species; assay type: in vivo, Setaria lutescens; conditions: Setaria, post-emergence, 336 h, read-out: percent postemergent control
How it was run: as §1

johnson grass [14] = assay: Postemergent control of plant species; assay type: in vivo, Sorghum halepense; conditions: Sorghum halepense, post-emergence, 336 h, read-out: percent postemergent control
How it was run: as §1

wild oats [15] = assay: Postemergent control of plant species; assay type: in vivo, Avena fatua; conditions: Avena fatua, post-emergence, 336 h, read-out: percent postemergent control
How it was run: as §1

yellow nutsedge [16] = assay: Postemergent control of plant species; assay type: in vivo, Cyperus esculentus; conditions: Cyperus, post-emergence, 336 h, read-out: percent postemergent control
How it was run: as §1

cotton [17] = assay: Preemergent control of plant species; assay type: in vivo, Gossypium spp.; conditions: Gossypium hirsutum, pre-emergence, 336 h; 0.25 lb/acre; read-out: percent preemergent control
How it was run: (§2)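 Seeds sown in agricultural soil beds in a greenhouse received aqueous emulsions of test compositions applied uniformly over the bed surface at the listed rates; water-treated beds served as control. After two weeks under greenhouse growth conditions, control was scored as growth reduction versus untreated plants of the same species.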

rape [18] = assay: Preemergent control of plant species; assay type: in vivo, Brassica napus; conditions: Brassica napus, pre-emergence, 336 h; 0.25 lb/acre; read-out: percent preemergent control
How it was run: as §2

soybean [19] = assay: Preemergent control of plant species; assay type: in vivo, Glycine max.; conditions: Glycine max, pre-emergence, 336 h; 0.25 lb/acre; read-out: percent preemergent control
How it was run: as §2

sugar beet [20] = assay: Preemergent control of plant species; assay type: in vivo, Beta saccharifera; conditions: Beta vulgaris, pre-emergence, 336 h; 0.25 lb/acre; read-out: percent preemergent control
How it was run: as §2

jimsonweed [21] = assay: Preemergent control of plant species; assay type: in vivo, Datura stramonium; conditions: Datura stramonium, pre-emergence, 336 h; 0.25 lb/acre; read-out: percent preemergent control
How it was run: as §2

annual morning glory [22] = assay: Preemergent control of plant species; assay type: in vivo, Ipomoea spp.; conditions: Ipomoea, pre-emergence, 336 h; 0.25 lb/acre; read-out: percent preemergent control
How it was run: as §2

velvetleaf [23] = assay: Preemergent control of plant species; assay type: in vivo, Abutilon theophrasti; conditions: Abutilon theophrasti, pre-emergence, 336 h; 0.25 lb/acre; read-out: percent preemergent control
How it was run: as §2

corn [24] = assay: Preemergent control of plant species; assay type: in vivo, Zea mays; conditions: Zea mays, pre-emergence, 336 h; 0.25 lb/acre; read-out: percent preemergent control
How it was run: as §2

rice [25] = assay: Preemergent control of plant species; assay type: in vivo, Oryza sativa; conditions: Oryza sativa, pre-emergence, 336 h; 0.25 lb/acre; read-out: percent preemergent control
How it was run: as §2

sorghum [26] = assay: Preemergent control of plant species; assay type: in vivo, Sorghum vulgare; conditions: Sorghum, pre-emergence, 336 h; 0.25 lb/acre; read-out: percent preemergent control
How it was run: as §2

wheat [27] = assay: Preemergent control of plant species; assay type: in vivo, Triticum aestivum; conditions: Triticum aestivum, pre-emergence, 336 h; 0.25 lb/acre; read-out: percent preemergent control
How it was run: as §2

barnyardgrass [28] = assay: Preemergent control of plant species; assay type: in vivo, Echinochloa crusgalli; conditions: Echinochloa crus-galli, pre-emergence, 336 h; 0.25 lb/acre; read-out: percent preemergent control
How it was run: as §2

johnson grass [29] = assay: Preemergent control of plant species; assay type: in vivo, Sorghum halepense; conditions: Sorghum halepense, pre-emergence, 336 h; 0.25 lb/acre; read-out: percent preemergent control
How it was run: as §2

yellow foxtail [30] = assay: Preemergent control of plant species; assay type: in vivo, Setaria lutescens; conditions: Setaria, pre-emergence, 336 h; 0.25 lb/acre; read-out: percent preemergent control
How it was run: as §2

yellow nutsedge [31] = assay: Preemergent control of plant species; assay type: in vivo, Cyperus esculentus; conditions: Cyperus, pre-emergence, 336 h; 0.25 lb/acre; read-out: percent preemergent control
How it was run: as §2

wild oats [32] = assay: Preemergent control of plant species; assay type: in vivo; conditions: Avena fatua, pre-emergence, 336 h; 0.25 lb/acre; read-out: percent preemergent control
How it was run: as §2

Compound | plant injury at 500 ppm (cotton [1]) [%] | plant injury at 500 ppm (rape [2]) [%] | plant injury at 500 ppm (soybean [3]) [%] | plant injury at 500 ppm (sugar beet [4]) [%] | pest or weed control at 500 ppm (cocklebur) [%] | pest or weed control at 500 ppm (jimsonweed [5]) [%] | pest or weed control at 500 ppm (annual morning glory [6]) [%] | pest or weed control at 500 ppm (pigweed) [%] | pest or weed control at 500 ppm (velvetleaf [7]) [%] | plant injury at 500 ppm (corn [8]) [%] | plant injury at 500 ppm (rice [9]) [%] | plant injury at 500 ppm (sorghum [10]) [%] | plant injury at 500 ppm (wheat [11]) [%] | pest or weed control at 500 ppm (barnyardgrass [12]) [%] | pest or weed control at 500 ppm (crabgrass) [%] | pest or weed control at 500 ppm (yellow foxtail [13]) [%] | pest or weed control at 500 ppm (johnson grass [14]) [%] | pest or weed control at 500 ppm (wild oats [15]) [%] | pest or weed control at 500 ppm (yellow nutsedge [16]) [%] | plant injury at 280.212 g/ha (cotton [17]) [%] | other results
Cc1cc(C)n2nc(S(=O)(=O)Nc3c(C)ccc(Cl)c3Cl)nc2n1 [Compound 74] | 70 | 100 | 80 | 100 | 100 | 90 | 80 | 70 | 100 | 0 | 0 | 80 | 0 | 70 | 0 | 60 | 50 | 0 | 95 | – | –
COC(=O)c1ccc(Cl)c(NS(=O)(=O)c2nc3nc(C)cc(C)n3n2)c1Cl [Compound 82] | 85 | 100 | 85 | 95 | 85 | 90 | 85 | 100 | 85 | 0 | 0 | 0 | 0 | 0 | 0 | 0 | 0 | 0 | 0 | – | –
Cc1cc(C)n2nc(S(=O)(=O)Nc3c(F)c(F)cc(F)c3F)nc2n1 [Compound 90] | 0 | 70 | 50 | – | 75 | 70 | 30 | 100 | 50 | 0 | 0 | 0 | 0 | 0 | – | 70 | 20 | 0 | 0 | – | –
Cc1nc2nc(S(=O)(=O)Nc3ccccc3[N+](=O)[O-])nn2c2c1CCC2 [Compound 105] | 35 | 40 | 95 | 90 | 100 | 60 | 70 | 60 | 0 | 80 | 20 | 0 | 0 | 20 | 0 | – | 0 | 0 | 0 | – | –
COc1ccc(Cl)c(NS(=O)(=O)c2nc3nc(C)ccn3n2)c1Cl [Compound 170] | 50 | – | 30 | 95 | 25 | 90 | 70 | 100 | 90 | 25 | 35 | 25 | 0 | 75 | 60 | 80 | 85 | 80 | 98 | 70 | plant injury at 280.212 g/ha (rape [18]): 100%; plant injury at 280.212 g/ha (soybean [19]): 0%; plant injury at 280.212 g/ha (sugar beet [20]): 90%; pest or weed control at 280.212 g/ha (jimsonweed [21]): 0%; pest or weed control at 280.212 g/ha (annual morning glory [22]): 30%; pest or weed control at 280.212 g/ha (velvetleaf [23]): 85%; plant injury at 280.212 g/ha (corn [24]): 20%; plant injury at 280.212 g/ha (rice [25]): 30%; plant injury at 280.212 g/ha (sorghum [26]): 80%; plant injury at 280.212 g/ha (wheat [27]): 10%; pest or weed control at 280.212 g/ha (barnyardgrass [28]): 40%; pest or weed control at 280.212 g/ha (johnson grass [29]): 90%; pest or weed control at 280.212 g/ha (yellow foxtail [30]): 70%; pest or weed control at 280.212 g/ha (yellow nutsedge [31]): 0%
Cc1ccn2nc(S(=O)(=O)N(c3c(F)cccc3F)S(=O)(=O)c3ccccc3)nc2n1 [Compound 298] | 35 | 85 | 0 | 80 | 50 | 50 | 50 | 100 | 80 | 0 | 40 | 40 | 0 | 65 | 25 | 75 | 50 | – | 0 | 100 | plant injury at 280.212 g/ha (rape [18]): 100%; plant injury at 280.212 g/ha (soybean [19]): 0%; plant injury at 280.212 g/ha (sugar beet [20]): 100%; pest or weed control at 280.212 g/ha (jimsonweed [21]): 100%; pest or weed control at 280.212 g/ha (annual morning glory [22]): 70%; pest or weed control at 280.212 g/ha (velvetleaf [23]): 100%; plant injury at 280.212 g/ha (corn [24]): 40%; plant injury at 280.212 g/ha (rice [25]): 95%; plant injury at 280.212 g/ha (sorghum [26]): 95%; plant injury at 280.212 g/ha (wheat [27]): 50%; pest or weed control at 280.212 g/ha (barnyardgrass [28]): 100%; pest or weed control at 280.212 g/ha (johnson grass [29]): 95%; pest or weed control at 280.212 g/ha (wild oats [32]): 50%; pest or weed control at 280.212 g/ha (yellow foxtail [30]): 100%; pest or weed control at 280.212 g/ha (yellow nutsedge [31]): 100%
